Measurements: patent publication US8575201B2 (Boehringer Ingelheim International GmbH, priority 2010, dated 2013)

Tests used:
[1] = system: synthesis of LTB4 in human whole blood; assay: Human whole blood LTB4 production inhibition assay; format: cell-based; conditions: calcimycin stimulated, read-out: hWB LTB4 IC50
Summary of the method: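 Whole-blood cellular format, heparinized human donors: 15 min compound pretreatment, then 30 min calcimycin stimulation (20 μM final), both at 37° C. Low-speed centrifugation yields plasma, in which LTB4 is read by homogeneous time-resolved fluorescence immunoassay.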

[2] = target: recombinant human FLAP protein (Homo sapiens (Human), UniProt P20292); assay: FLAP binding assay (Scintillation Proximity Assay, displacement of [125I]L-691,831); conditions: read-out: FLAP SPA IC50
Summary of the method: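 Scintillation proximity displacement of an iodinated (125I) FLAP inhibitor by test compounds, using 100,000×g membrane fraction from lysed cells. Final beads 200 μg/well and protein 5 μg/well; plates shaken 2 h before reading.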

recombinant human FLAP protein, sequence (P20292 whole entry): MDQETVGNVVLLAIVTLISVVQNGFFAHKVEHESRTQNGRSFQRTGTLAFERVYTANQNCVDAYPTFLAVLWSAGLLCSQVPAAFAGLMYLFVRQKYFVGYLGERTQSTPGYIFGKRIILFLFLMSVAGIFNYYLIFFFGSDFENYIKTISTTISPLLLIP

| SMILES | IC50 [1] | IC50 [2] |
| --- | --- | --- |
| Cc1n[nH]c(C)c1-c1nc(C2(c3ccc(-c4cnc(N)nc4)nc3)CCC2)no1 [Example 103, 5-(5-{1-[5-(3,5-dimethyl-1H-pyrazol-4-yl)-1,2,4-oxadiazol-3-yl]cyclobutyl}pyridin-2-yl)pyrimidin-2-amine] | 1 µM | 0.014 µM |
| Nc1ncc(-c2ccc(C3(c4noc(-c5ccnnc5)n4)CCC3)cn2)cn1 [Example 104, 5-(5-{1-[5-(pyridazin-4-yl)-1,2,4-oxadiazol-3-yl]cyclobutyl}pyridin-2-yl)pyrimidin-2-amine] | 2.1 µM | 0.11 µM |
| Nc1ncc(-c2ccc(C3(c4noc(-c5cnccc5N)n4)CCC3)cn2)cn1 [Example 106, 5-(5-{1-[5-(4-aminopyridin-3-yl)-1,2,4-oxadiazol-3-yl]cyclobutyl}pyridin-2-yl)pyrimidin-2-amine] | 0.84 µM | 0.031 µM |
| Nc1ncc(-c2ccc(C3(c4noc(-c5cnccc5O)n4)CCC3)cn2)cn1 [Example 107, 3-(3-{1-[6-(2-aminopyrimidin-5-yl)pyridin-3-yl]cyclobutyl}-1,2,4-oxadiazol-5-yl)pyridin-4-ol] | 4 µM | 0.19 µM |
| Nc1ncc(-c2ccc(C3(c4noc(-c5cccnc5C(F)(F)F)n4)CCC3)cn2)cn1 [Example 109, 5-[5-(1-{5-[2-(trifluoromethyl)pyridin-3-yl]-1,2,4-oxadiazol-3-yl}cyclobutyl)pyridin-2-yl]pyrimidin-2-amine] | 1.5 µM | 0.014 µM |
| CN(C)c1ccc(-c2nc(C3(c4ccc(-c5cnc(N)nc5)nc4)CCC3)no2)cn1 [Example 110, 5-[5-(1-{5-[6-(dimethylamino)pyridin-3-yl]-1,2,4-oxadiazol-3-yl}cyclobutyl)pyridin-2-yl]pyrimidin-2-amine] | 0.31 µM | 0.0024 µM |
| Nc1ccc(-c2nc(C3(c4ccc(-c5cnc(N)nc5)nc4)CCC3)no2)cn1 [Example 111, 5-(5-{1-[5-(6-aminopyridin-3-yl)-1,2,4-oxadiazol-3-yl]cyclobutyl}pyridin-2-yl)pyrimidin-2-amine] | 0.074 µM | 0.0042 µM |
| Nc1ncc(-c2ccc(C3(c4noc(-c5ccc(N6CCCC6)nc5)n4)CCC3)cn2)cn1 [Example 112, 5-[5-(1-{5-[6-(pyrrolidin-1-yl)pyridin-3-yl]-1,2,4-oxadiazol-3-yl}cyclobutyl)pyridin-2-yl]pyrimidin-2-amine] | 0.57 µM | 0.0033 µM |
| COCCN(C)c1ccc(-c2nc(C3(c4ccc(-c5cnc(N)nc5)nc4)CCC3)no2)cn1 [Example 117, 5-{5-[1-(5-{6-[(2-methoxyethyl)(methyl)amino]pyridin-3-yl}-1,2,4-oxadiazol-3-yl)cyclobutyl]pyridin-2-yl}pyrimidin-2-amine] | 0.12 µM | 0.003 µM |
| CS(=O)(=O)c1ccc(-c2nc(C3(c4ccc(-c5cnc(N)nc5)nc4)CCC3)no2)cn1 [Example 119, 5-[5-(1-{5-[6-(methylsulfonyl)pyridin-3-yl]-1,2,4-oxadiazol-3-yl}-cyclobutyl)pyridin-2-yl]pyrimidin-2-amine] | 0.23 µM | 0.062 µM |
| CNc1ncccc1-c1nc(C2(c3ccc(-c4cnc(N)nc4)nc3)CCC2)no1 [Example 122, 5-[5-(1-{5-[2-(methylamino)pyridin-3-yl]-1,2,4-oxadiazol-3-yl}cyclobutyl)pyridin-2-yl]pyrimidin-2-amine] | 3.8 µM | 0.028 µM |
| Cn1nccc1-c1nc(C2(c3ccc(-c4cnc(N)nc4)nc3)CCC2)no1 [Example 124, 5-(5-{1-[5-(1-methyl-1H-pyrazol-5-yl)-1,2,4-oxadiazol-3-yl]cyclobutyl}pyridin-2-yl)pyrimidin-2-amine] | 0.21 µM | 0.011 µM |
| Nc1ncc(-c2ccc(C3(c4noc(-c5ccc(N6CCNC(=O)C6)nc5)n4)CCC3)cn2)cn1 [Example 125, 4-[5-(3-{1-[6-(2-aminopyrimidin-5-yl)pyridin-3-yl]cyclobutyl}-1,2,4-oxadiazol-5-yl)pyridin-2-yl]piperazin-2-one] | 0.16 µM | 0.0018 µM |
| CN(C)c1ncccc1-c1nc(C2(c3ccc(-c4cnc(N)nc4)nc3)CCC2)no1 [Example 126, 5-[5-(1-{5-[2-(dimethylamino)pyridin-3-yl]-1,2,4-oxadiazol-3-yl}cyclobutyl)pyridin-2-yl]pyrimidin-2-amine] | > 5 µM | 0.034 µM |
| Cn1ccc(-c2nc(C3(c4ccc(-c5cnc(N)nc5)nc4)CCC3)no2)n1 [Example 127, 5-(5-{1-[5-(1-methyl-1H-pyrazol-3-yl)-1,2,4-oxadiazol-3-yl]cyclobutyl}pyridin-2-yl)pyrimidin-2-amine] | 0.64 µM | 0.04 µM |
| Nc1ncc(-c2ccc(C3(c4noc(-c5cccnc5N5CCOCC5)n4)CCC3)cn2)cn1 [Example 128, 5-[5-(1-{5-[2-(morpholin-4-yl)pyridin-3-yl]-1,2,4-oxadiazol-3-yl}cyclobutyl)pyridin-2-yl]pyrimidin-2-amine] | 2.7 µM | 0.066 µM |
| Nc1ncc(-c2ccc(C3(c4noc(-c5cnccn5)n4)CCC3)cn2)cn1 [Example 129, 5-(5-{1-[5-(pyrazin-2-yl)-1,2,4-oxadiazol-3-yl]cyclobutyl}pyridin-2-yl)pyrimidin-2-amine] | 0.63 µM | 0.047 µM |
| Cc1cnc(-c2nc(C3(c4ccc(-c5cnc(N)nc5)nc4)CCC3)no2)cn1 [Example 130, 5-(5-{1-[5-(5-methylpyrazin-2-yl)-1,2,4-oxadiazol-3-yl]cyclobutyl}pyridin-2-yl)pyrimidin-2-amine] | 0.35 µM | 0.026 µM |
| Nc1ncc(-c2ccc(C3(c4noc(-c5cn[nH]c5)n4)CCC3)nc2)cn1 [Example 132, 5-(6-{1-[5-(1H-pyrazol-4-yl)-1,2,4-oxadiazol-3-yl]cyclobutyl}pyridin-3-yl)pyrimidin-2-amine] | 0.37 µM | 0.046 µM |

Other lines, results leading:

| IC50 [1] | IC50 [2] | SMILES |
| --- | --- | --- |
| 0.27 µM | 0.013 µM | Cn1cc(-c2nc(C3(c4ccc(-c5cnc(N)nc5)nc4)CCC3)no2)cn1 [Example 102, 5-(5-{1-[5-(1-methyl-1H-pyrazol-4-yl)-1,2,4-oxadiazol-3-yl]cyclobutyl}pyridin-2-yl)pyrimidin-2-amine] |
| 0.57 µM | 0.017 µM | Nc1ncc(-c2ccc(C3(c4noc(-c5cccnc5N)n4)CCC3)cn2)cn1 [Example 105, 5-(5-{1-[5-(2-aminopyridin-3-yl)-1,2,4-oxadiazol-3-yl]cyclobutyl}pyridin-2-yl)pyrimidin-2-amine] |
| 0.72 µM | 0.048 µM | Nc1ncc(-c2ccc(C3(c4noc(-c5ccc(=O)[nH]c5)n4)CCC3)cn2)cn1 [Example 108, 5-(3-{1-[6-(2-aminopyrimidin-5-yl)pyridin-3-yl]cyclobutyl}-1,2,4-oxadiazol-5-yl)pyridin-2(1H)-one] |
| 0.1 µM | 0.0024 µM | CNc1ccc(-c2nc(C3(c4ccc(-c5cnc(N)nc5)nc4)CCC3)no2)cn1 [Example 113, 5-[5-(1-{5-[6-(methylamino)pyridin-3-yl]-1,2,4-oxadiazol-3-yl}cyclobutyl)pyridin-2-yl]pyrimidin-2-amine] |
| 0.28 µM | 0.0015 µM | CC(C)Nc1ccc(-c2nc(C3(c4ccc(-c5cnc(N)nc5)nc4)CCC3)no2)cn1 [Example 114, 5-[5-(1-{5-[6-(propan-2-ylamino)pyridin-3-yl]-1,2,4-oxadiazol-3-yl}cyclobutyl)pyridin-2-yl]pyrimidin-2-amine] |
| 0.049 µM | 0.0019 µM | Nc1ncc(-c2ccc(C3(c4noc(-c5ccc(NCCO)nc5)n4)CCC3)cn2)cn1 [Example 115, 2-{[5-(3-{1-[6-(2-aminopyrimidin-5-yl)pyridin-3-yl]cyclobutyl}-1,2,4-oxadiazol-5-yl)pyridin-2-yl]amino}ethanol] |
| 0.14 µM | 0.0043 µM | CN(CCO)c1ccc(-c2nc(C3(c4ccc(-c5cnc(N)nc5)nc4)CCC3)no2)cn1 [Example 116, 2-{[5-(3-{1-[6-(2-aminopyrimidin-5-yl)pyridin-3-yl]cyclobutyl}-1,2,4-oxadiazol-5-yl)pyridin-2-yl](methyl)amino}ethanol] |
| 0.084 µM | 0.0028 µM | COCCNc1ccc(-c2nc(C3(c4ccc(-c5cnc(N)nc5)nc4)CCC3)no2)cn1 [Example 118, 5-{5-[1-(5-{6-[(2-methoxyethyl)amino]pyridin-3-yl}-1,2,4-oxadiazol-3-yl)cyclobutyl]pyridin-2-yl}pyrimidin-2-amine] |
| > 5 µM | 0.2 µM | Nc1ncc(-c2ccc(C3(c4noc(-c5nc[nH]n5)n4)CCC3)cn2)cn1 [Example 120, 5-(5-{1-[5-(1H-1,2,4-triazol-3-yl)-1,2,4-oxadiazol-3-yl]cyclobutyl}pyridin-2-yl)pyrimidin-2-amine] |
| 1.8 µM | 0.028 µM | Cc1cc(-c2nc(C3(c4ccc(-c5cnc(N)nc5)nc4)CCC3)no2)n(C)n1 [Example 121, 5-(5-{1-[5-(1,3-dimethyl-1H-pyrazol-5-yl)-1,2,4-oxadiazol-3-yl]cyclobutyl}pyridin-2-yl)pyrimidin-2-amine] |
| 0.79 µM | 0.031 µM | Nc1ncc(-c2ccc(C3(c4noc(-c5cncs5)n4)CCC3)cn2)cn1 [Example 123, 5-(5-{1-[5-(1,3-thiazol-5-yl)-1,2,4-oxadiazol-3-yl]cyclobutyl}pyridin-2-yl)pyrimidin-2-amine] |
| 0.3 µM | 0.052 µM | Cn1cnc(-c2nc(C3(c4ccc(-c5cnc(N)nc5)nc4)CCC3)no2)c1 [Example 131, 5-(5-{1-[5-(1-methyl-1H-imidazol-4-yl)-1,2,4-oxadiazol-3-yl]cyclobutyl}pyridin-2-yl)pyrimidin-2-amine] |
| 0.34 µM | 0.043 µM | Cc1cc(-c2nc(C3(c4ccc(-c5cnc(N)nc5)cn4)CCC3)no2)[nH]n1 [Example 133, 5-(6-{1-[5-(3-methyl-1H-pyrazol-5-yl)-1,2,4-oxadiazol-3-yl]cyclobutyl}pyridin-3-yl)pyrimidin-2-amine] |
